Values of other authors as cited in patent publication US9358213B2, “Pharmaceutical compositions of duloxetine” (priority 2007, dated 2016).

## CNCC[C@H](Oc1cccc2ccccc12)c1cccs1 [Duloxetine]
Alkaline pH
  stability at alkaline pH: stable
pH of 1.0, within one hour
  dosage hydrolyzed to 1-naphthol: 50%
pH of 2.0, in one hour
  dosage degrades to 1-naphthol: 10%
pH of 4.0
  time for 10% degradation: up to 63 hours
